Test results reported in BindingDB's records for PubMed 2078271 (Sorbonne University, 1990).

Target: T1, 5-hydroxytryptamine receptor 1A (Homo sapiens, UniProt P08908)
T1 sequence (P08908 whole entry): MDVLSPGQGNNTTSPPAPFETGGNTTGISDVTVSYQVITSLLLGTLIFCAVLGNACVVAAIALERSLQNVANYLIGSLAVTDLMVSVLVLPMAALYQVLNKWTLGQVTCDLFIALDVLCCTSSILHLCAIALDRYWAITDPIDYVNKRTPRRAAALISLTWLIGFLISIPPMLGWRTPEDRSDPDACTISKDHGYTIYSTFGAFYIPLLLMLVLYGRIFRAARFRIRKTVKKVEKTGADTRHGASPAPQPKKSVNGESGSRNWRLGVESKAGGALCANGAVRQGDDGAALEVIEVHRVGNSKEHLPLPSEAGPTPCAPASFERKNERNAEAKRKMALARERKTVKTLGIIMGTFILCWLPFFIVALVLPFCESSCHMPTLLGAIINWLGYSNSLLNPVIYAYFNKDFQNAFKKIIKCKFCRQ

SMILES: COc1ccccc1N1CCN(CCN(C(=O)c2ccc(I)cc2)c2ccccn2)CC1
- Ki: 0.32 nM

SMILES: COc1c(O)c(O)cc2c1CC(N)CC2 (stereo not drawn) [5-OME-3-ADTN]
- Ki: 1 nM

SMILES: CCCN(CCCCN1C(=O)CC2(CCCC2)CC1=O)C1COc2cccc(OC)c2C1 (stereo not drawn) [NSC_121851]
- Ki: 0.2 nM

SMILES: COC(=O)c1cc2c(N3CCN(CCCCN4C(=O)c5ccccc5S4(=O)=O)CC3)cccc2[nH]1 [CAS_141533-35-9]
- Ki: 0.7 nM

SMILES: FC(F)(F)c1cccc(C2=CCN(CCc3ccc4ccccc4c3)CC2)c1 [CAS_90494-79-4]
- Ki: 2 nM

SMILES: CC(C)(C)NCC(O)COc1ccccc1C1CCCC1 (single isomer, unassigned; (-)) [NSC_37464]
- Ki: 8 nM

SMILES: Clc1cnn(CCCCN2CCN(c3ncccn3)CC2)c1 [CAS_132449-46-8]
- Ki: 50 nM

SMILES: COc1ccccc1N1CCN(C[C@@H](C(=O)NC(C)(C)C)c2ccccc2)CC1 [WAY 100135]
- Ki: 20 nM

SMILES: CCCN(CCC)CCc1c[nH]c2ccc(C(N)=O)cc12 [NN-DIPROP-5-CT]
- Ki: 0.2 nM

SMILES: COc1ccccc1N1CCN(CCCNc2c(C)c(=O)n(C)c(=O)n2C)CC1 [Urapidil-5-methyl]
- Ki: 0.35 nM

SMILES: CC(C)(C)NCC(O)COc1cccc2c1SCCC2 (single isomer, unassigned; (-)) [TERTATOLOL(-)]
- Ki: 10 nM

SMILES: O=C(NCCN1CCN(c2cccc3c2OCC(CO)O3)CC1)c1ccc(F)cc1 (stereo not drawn) [FLESINOXAN]
- Ki: 3 nM

SMILES: O=C1c2ccccc2S(=O)(=O)N1CCCCN1CCN(c2ncccn2)CC1 [1,1-Dioxo-2-[4-(4-pyrimidin-2-yl-piperazin-1-yl)-butyl]-1,2-dihydro-1lambda*6*-benzo[d]isothiazol-3-one]
- Ki: 10 nM
